# Results: patent publication US20220409598A1, “METHOD OF CONTROLLING BLOOD SUGAR LEVEL AND TREATMENT OF DIABETES AND RELATED CONDITIONS” (ILDONG PHARMACEUTICAL CO., LTD., priority 2021, published 2022)
# Read-outs that look alike come from different tables or passages of the source.
# Key:
# FXR = assay: Transcription factor profiling in 2D HepG2 cell, FXR; assay type: cell-based; conditions: 10 μM for 48 hours
# human hepatocytes [1] = assay: Covalent protein binding in human hepatocytes; assay type: in vitro ADME
# Description: The covalent binding (CVB) burden was estimated by determining the CVB of radiolabeled compound to human hepatocytes and factoring in both the daily dose and the fraction of metabolism leading to CVB. […] Reference Example 1 compound's dose over 260 mg a day was predicted to exceed the CVB burden threshold of 1 mg/day.
# MRP2 = MRP2 (Homo sapiens, UniProt Q92887); assay: Human transporter inhibition study, MRP2; assay type: biochemical; conditions: read-out: MRP2 in vitro inhibition IC50
# Chain of MRP2 (Q92887 whole entry): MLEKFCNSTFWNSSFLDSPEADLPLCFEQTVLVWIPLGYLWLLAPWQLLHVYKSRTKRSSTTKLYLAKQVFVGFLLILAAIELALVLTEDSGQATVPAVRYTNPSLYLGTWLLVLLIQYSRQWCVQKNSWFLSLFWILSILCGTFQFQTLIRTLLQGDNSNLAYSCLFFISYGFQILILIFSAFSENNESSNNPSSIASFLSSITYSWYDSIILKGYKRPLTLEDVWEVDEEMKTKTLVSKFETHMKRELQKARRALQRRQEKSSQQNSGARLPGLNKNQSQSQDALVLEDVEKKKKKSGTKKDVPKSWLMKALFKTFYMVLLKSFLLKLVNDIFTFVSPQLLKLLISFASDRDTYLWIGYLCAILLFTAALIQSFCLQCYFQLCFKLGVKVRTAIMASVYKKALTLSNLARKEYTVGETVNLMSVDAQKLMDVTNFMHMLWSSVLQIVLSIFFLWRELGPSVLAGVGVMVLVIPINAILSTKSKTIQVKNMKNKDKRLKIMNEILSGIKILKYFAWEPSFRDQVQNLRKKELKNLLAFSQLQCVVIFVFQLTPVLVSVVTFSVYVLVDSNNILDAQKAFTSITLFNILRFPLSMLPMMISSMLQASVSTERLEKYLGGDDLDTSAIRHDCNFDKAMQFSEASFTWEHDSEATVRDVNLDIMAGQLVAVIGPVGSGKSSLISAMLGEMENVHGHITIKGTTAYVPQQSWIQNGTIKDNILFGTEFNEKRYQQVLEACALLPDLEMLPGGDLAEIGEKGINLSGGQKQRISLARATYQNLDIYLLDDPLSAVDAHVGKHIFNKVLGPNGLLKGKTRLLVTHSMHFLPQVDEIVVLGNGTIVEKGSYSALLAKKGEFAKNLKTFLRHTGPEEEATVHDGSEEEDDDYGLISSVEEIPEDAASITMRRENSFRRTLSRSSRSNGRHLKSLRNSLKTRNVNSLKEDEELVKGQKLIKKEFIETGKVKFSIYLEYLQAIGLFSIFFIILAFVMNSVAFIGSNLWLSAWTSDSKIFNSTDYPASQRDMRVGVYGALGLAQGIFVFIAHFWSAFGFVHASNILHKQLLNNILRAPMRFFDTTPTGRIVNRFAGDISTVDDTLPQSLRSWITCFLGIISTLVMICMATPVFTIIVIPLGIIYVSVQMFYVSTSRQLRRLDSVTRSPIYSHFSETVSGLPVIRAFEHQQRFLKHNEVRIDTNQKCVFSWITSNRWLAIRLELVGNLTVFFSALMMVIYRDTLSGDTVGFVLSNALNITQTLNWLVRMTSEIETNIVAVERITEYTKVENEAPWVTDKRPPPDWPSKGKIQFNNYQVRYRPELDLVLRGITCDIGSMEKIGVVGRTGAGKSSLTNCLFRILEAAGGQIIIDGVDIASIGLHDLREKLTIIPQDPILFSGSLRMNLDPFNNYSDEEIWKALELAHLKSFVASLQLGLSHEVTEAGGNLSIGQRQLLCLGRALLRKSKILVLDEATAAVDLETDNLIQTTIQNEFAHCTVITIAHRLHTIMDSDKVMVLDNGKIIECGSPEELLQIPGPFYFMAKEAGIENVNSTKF
# Text: (§1) • (a) Human Transporter Inhibition Study and Safety Margin
# [2] = OGTT (Oral Glucose Tolerance Test) in SD rats; assay type: in vivo; conditions: 1 mg/kg
# Description: Additionally, the results of the exposure and efficacy of Reference Example 1 compound (at 0.1 mg/kg, 0.3 mg/kg, and 1 mg/kg doses) in SD rats are shown in FIG. 6.
# [3] = HμRELTox assay, hepatotoxic response; assay type: cell-based; conditions: read-out: TC50 (the source's name)
# MRP3 = MRP3 (Homo sapiens, UniProt O15438); assay: Human transporter inhibition study, MRP3; assay type: biochemical
# Chain of MRP3 (O15438 whole entry): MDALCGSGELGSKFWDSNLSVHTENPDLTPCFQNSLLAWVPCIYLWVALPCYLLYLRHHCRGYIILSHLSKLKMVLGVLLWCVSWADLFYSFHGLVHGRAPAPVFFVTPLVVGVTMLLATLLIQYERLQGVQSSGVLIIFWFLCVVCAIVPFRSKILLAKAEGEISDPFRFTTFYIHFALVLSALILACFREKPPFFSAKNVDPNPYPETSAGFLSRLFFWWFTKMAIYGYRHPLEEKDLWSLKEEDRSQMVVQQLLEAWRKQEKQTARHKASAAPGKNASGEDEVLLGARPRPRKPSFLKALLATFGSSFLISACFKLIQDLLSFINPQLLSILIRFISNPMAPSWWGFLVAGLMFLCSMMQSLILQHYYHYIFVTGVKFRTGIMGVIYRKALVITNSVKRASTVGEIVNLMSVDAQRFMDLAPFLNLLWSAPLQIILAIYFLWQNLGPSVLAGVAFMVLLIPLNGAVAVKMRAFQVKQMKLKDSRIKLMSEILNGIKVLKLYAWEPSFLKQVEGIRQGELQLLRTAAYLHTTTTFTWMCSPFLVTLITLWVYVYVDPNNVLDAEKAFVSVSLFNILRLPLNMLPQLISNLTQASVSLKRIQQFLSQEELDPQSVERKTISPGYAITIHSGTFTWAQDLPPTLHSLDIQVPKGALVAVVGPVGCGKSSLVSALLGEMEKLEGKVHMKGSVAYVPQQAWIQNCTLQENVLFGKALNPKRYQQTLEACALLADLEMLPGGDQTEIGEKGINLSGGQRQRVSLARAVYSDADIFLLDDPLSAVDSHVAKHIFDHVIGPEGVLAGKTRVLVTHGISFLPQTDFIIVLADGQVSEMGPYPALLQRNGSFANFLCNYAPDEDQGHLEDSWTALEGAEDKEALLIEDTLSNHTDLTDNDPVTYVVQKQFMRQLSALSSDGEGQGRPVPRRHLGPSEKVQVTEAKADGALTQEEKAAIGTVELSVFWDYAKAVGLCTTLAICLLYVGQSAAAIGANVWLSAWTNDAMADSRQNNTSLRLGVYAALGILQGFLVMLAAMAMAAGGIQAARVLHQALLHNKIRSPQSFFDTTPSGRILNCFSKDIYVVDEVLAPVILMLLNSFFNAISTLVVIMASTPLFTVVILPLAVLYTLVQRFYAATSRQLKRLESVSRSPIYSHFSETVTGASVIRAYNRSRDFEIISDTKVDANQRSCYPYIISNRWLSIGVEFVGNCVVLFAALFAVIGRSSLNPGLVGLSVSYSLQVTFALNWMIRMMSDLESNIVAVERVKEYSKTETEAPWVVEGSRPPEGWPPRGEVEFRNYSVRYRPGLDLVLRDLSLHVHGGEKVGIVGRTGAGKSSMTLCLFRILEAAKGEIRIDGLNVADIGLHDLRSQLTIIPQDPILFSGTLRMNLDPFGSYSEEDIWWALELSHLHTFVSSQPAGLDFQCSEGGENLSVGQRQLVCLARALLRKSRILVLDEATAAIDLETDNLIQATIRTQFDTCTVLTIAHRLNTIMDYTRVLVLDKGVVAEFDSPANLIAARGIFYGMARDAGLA
# Text: as §1
# [4] = tested on: glycocholic acid (GCA) accumulation; assay: Bile acid analysis, glycocholic acid (GCA) accumulation; assay type: cell-based
# Text: Glycocholic acid (GCA) and glycochenodeoxycholic acid (GCDCA) are major components of human bile acids and their significant increase has been confirmed in DILI patients.
# MRP4 = target: T1, MRP4 (Homo sapiens, UniProt O15439); assay: Human transporter inhibition study, MRP4; assay type: biochemical; conditions: read-out: MRP4 in vitro inhibition IC50
# T1 sequence (O15439 1-1325): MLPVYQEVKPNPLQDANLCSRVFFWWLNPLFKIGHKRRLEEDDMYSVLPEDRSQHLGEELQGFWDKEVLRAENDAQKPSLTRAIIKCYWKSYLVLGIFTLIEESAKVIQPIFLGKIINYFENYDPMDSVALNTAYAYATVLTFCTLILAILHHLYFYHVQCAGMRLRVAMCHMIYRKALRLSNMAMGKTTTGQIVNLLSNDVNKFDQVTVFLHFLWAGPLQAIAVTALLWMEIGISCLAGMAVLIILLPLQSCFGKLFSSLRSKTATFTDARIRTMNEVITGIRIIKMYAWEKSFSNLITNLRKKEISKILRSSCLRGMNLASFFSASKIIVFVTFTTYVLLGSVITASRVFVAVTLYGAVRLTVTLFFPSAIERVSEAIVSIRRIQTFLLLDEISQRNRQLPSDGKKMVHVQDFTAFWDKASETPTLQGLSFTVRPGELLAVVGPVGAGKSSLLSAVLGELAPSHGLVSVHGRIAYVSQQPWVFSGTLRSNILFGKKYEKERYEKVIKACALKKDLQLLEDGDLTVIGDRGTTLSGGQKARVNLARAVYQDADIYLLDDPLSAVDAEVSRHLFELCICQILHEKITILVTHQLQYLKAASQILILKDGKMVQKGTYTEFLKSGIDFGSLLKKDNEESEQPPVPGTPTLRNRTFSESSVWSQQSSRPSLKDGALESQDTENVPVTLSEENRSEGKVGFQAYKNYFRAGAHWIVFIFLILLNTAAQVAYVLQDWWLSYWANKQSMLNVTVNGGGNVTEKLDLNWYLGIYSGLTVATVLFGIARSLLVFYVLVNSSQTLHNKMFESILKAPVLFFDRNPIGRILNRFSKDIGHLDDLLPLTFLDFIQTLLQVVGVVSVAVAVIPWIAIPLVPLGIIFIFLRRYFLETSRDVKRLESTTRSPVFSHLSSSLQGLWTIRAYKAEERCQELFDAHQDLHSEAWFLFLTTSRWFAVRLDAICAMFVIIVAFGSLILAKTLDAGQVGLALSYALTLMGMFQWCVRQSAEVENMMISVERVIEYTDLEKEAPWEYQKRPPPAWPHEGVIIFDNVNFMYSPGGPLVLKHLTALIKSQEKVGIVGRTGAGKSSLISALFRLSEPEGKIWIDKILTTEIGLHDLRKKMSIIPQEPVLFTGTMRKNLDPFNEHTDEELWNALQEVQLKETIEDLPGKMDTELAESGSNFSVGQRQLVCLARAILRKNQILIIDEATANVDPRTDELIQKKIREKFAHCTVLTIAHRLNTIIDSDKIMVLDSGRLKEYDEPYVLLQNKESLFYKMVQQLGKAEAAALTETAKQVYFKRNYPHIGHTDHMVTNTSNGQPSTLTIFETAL
# Text: as §1
# [5] = tested on: hepatic transcription factors; assay: Transcription factor profiling in 2D HepG2 cell, various hepatic transcription factors; assay type: cell-based; conditions: 2D HepG2 cell, 0.3, 3.3, 10 μM; compared to fasiglifam
# [6] = Single ascending dose (SAD) study in healthy human, safety; assay type: in vivo
# Description: (§2) To determine safety and pK data in human subjects, single ascending dose (SAD) study was conducted. SAD study included 5 cohorts of 8 healthy subjects who were randomized and received a single oral dose of Reference Example 1 compound or placebo (3:1) at 0.5 mg, 1 mg, 2 mg, 5 mg, or 10 mg. Each cohort was initiated after review of the safety and PK data of the previous cohort. 5 mg cohort was divided into two groups, wherein one group was administered with Reference Example 1 compound in fasted state and the other group was administered with Reference Example 1 compound together with food.
# As expected from preclinical PK modelling, none of the single doses exceeded the PK stopping criteria for Cmax and AUClast.
# Of the 12 AEs, 5 were considered to be possibly related to IMP (Investigational Medicinal Product). The 5 AE included headaches (2), lower abdominal pain, diarrhea, and exanthema in the right upper arm, all of which were of mild intensity and recovered quickly.
# Overall, none of the AEs caused medical concern, and no stopping criteria per protocol were met.
# HepaRG cell = assay: Mitochondrial function inhibition in HepaRG cell; assay type: cell-based
# [7] = Single ascending dose (SAD) study in healthy human, plasma PK; assay type: in vivo; conditions: for AUC(0-inf) / AUC(0-t) / Cmax: human, plasma, po; for AUC(0-inf): read-out: AUCinf, geometric mean; for AUC(0-t): read-out: AUClast, geometric mean; for Cmax: read-out: Cmax, geometric mean
# Description: as §2
# Mean plasma concentration of Reference Example 1 compound following single dose of 0.5, 1, 2, 5, and 10 mg are shown in FIG. 4A (linear scale) and FIG. 4B (semi-logarithmic scale).
# FIG. 5A and FIG. 5B show mean plasma concentration of Reference Example 1 compound following single dose of 0.5 mg (fasted), 1 mg (fasted), 2 mg (fasted), 5 mg (fasted), and 5 mg (fed) in linear scale and semi-logarithmic scale, respectively.
# [8] = target: BSEP (bile salt export pump) (Homo sapiens, UniProt O95342); assay: Human transporter inhibition study, BSEP; assay type: biochemical
# Chain of BSEP (bile salt export pump) (O95342 whole entry): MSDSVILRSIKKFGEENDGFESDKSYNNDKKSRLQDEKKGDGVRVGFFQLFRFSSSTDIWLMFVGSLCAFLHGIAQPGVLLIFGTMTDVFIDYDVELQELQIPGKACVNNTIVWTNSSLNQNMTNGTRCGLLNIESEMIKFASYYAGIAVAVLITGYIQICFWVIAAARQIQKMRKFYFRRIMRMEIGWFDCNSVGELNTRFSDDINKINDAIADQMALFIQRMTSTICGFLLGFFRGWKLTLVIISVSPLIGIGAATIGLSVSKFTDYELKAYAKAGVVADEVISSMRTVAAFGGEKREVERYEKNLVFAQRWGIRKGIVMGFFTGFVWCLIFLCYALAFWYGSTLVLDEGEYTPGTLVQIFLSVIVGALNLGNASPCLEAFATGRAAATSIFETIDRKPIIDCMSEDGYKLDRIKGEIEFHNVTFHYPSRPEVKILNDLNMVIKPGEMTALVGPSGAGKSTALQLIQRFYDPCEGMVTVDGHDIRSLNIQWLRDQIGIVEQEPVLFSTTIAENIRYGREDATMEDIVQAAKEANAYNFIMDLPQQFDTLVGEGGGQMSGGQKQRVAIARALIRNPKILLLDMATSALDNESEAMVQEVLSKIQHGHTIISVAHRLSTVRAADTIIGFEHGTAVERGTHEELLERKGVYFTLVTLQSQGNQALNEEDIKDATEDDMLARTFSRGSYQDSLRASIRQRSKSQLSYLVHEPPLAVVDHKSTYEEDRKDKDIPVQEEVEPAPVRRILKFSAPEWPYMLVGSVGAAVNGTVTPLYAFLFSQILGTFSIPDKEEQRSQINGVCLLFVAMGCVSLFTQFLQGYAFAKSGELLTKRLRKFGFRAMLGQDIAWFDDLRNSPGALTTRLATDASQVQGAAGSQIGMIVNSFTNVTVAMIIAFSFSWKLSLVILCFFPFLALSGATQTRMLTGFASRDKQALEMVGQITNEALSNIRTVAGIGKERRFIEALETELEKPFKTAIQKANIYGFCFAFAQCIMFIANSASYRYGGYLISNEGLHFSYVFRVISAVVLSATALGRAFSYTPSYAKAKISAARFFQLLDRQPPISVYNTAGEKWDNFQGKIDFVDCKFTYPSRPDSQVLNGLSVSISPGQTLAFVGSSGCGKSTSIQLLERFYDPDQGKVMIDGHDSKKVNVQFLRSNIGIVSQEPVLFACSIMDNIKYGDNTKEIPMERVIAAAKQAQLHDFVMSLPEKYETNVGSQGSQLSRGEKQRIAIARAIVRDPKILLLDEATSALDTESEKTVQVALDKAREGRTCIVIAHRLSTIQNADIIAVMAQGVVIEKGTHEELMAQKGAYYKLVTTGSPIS
# Text: DILI risk may be due to potency of BSEP inhibition in combination with in vivo drug exposure (e.g., Cmax or Css (plasma concentration at steady state)).
# as §1
# NRF2 = assay: Transcription factor profiling in 2D HepG2 cell, NRF2; assay type: cell-based; conditions: 10 μM for 24 hours
# PPAR = assay: Transcription factor profiling in 2D HepG2 cell, PPAR; assay type: cell-based; conditions: 10 μM for 24 hours
# [9] = cited from earlier work; for Cmax: fasiglifam, Clin. Pharmacol. Ther. 92, 29-39, read-out: Human Cmax (maximum plasma concentration at steady state); for Cpss, max: human
# AP-1 = assay: Transcription factor profiling in 2D HepG2 cell, AP-1; assay type: cell-based; conditions: 10 μM for 24 hours
# human hepatocytes [10] = conditions: Otieno et al. 2018, cited from earlier work
# [11] = diabetics, metformin on its own; cited from earlier work
# [12] = human hepatocytes, compound alone
# [13] = 0.5 mg, single oral dose 0.5 mg
# [14] = 5 mg, single oral dose 5 mg fasted
# [15] = 5 mg, single oral dose 5 mg fed
# [16] = in vitro inhibition, read-out: BSEP IC50
smiles,measurement,setting,value
"CC#C[C@@H](CC(=O)O)c1ccc(O[C@@H]2CCc3c(-c4ccc(O[C@@H]5CCOC5)nc4)ccc(F)c32)cc1 [Reference Example 1, (S)-3-(4-(((R)-7-Fluoro-4-(6-(((R)-tetrahydrofuran-3-yl)oxy)pyridin-3-yl)-2,3-dihydro-1H-inden-1-yl)oxy)phenyl)hex-4-ynoic acid]",Increase of FXR activity,FXR,1.58 fold
same,Dose predicted to exceed the CVB burden threshold of 1 mg/day,human hepatocytes [1],over 260 mg a day
same,CVB Burden,human hepatocytes [1]; daily dose 2 mg (human efficacious dose from PK/PD modeling),0.01 mg/day
same,"Covalent binding (CVB), +Aminobenzotriazole (CYP inhibitor)",human hepatocytes [1]; human hepatocytes,29.5 pmol/mg protein
same,"Covalent binding (CVB), +Borneol (UGT inhibitor)",human hepatocytes [1]; human hepatocytes,21.2 pmol/mg protein
same,"Covalent binding (CVB), compound",human hepatocytes [1]; [12],37.6 pmol/mg protein
same,IC50,MRP2,39.9 µM
same,Reduction in glucose AUC in OGTT,[2],approximately 20.8%
same,CC50,[3],52.7 µM
same,MRP3 in vitro inhibition IC50,MRP3,No inhibition
same,Accumulation of glycocholic acid (GCA),[4]; at 1 μM,does not show significant accumulation
same,IC50,MRP4,4.4 µM
same,Effect on various transcription factor (TF) activities,[5],insignificant
same,"Changes in ECG, vital signs, and lab data",[6]; SAD study,no significant changes
same,Adverse events of special interest / serious adverse events,[6]; SAD study 0.5-10 mg,no adverse event of special interest (AESI) or serious adverse event (SAE) was reported
same,Number of AEs considered possibly related to IMP,"[6]; SAD study, all mild intensity",5
same,Number of adverse events (AE) reported,"[6]; SAD study, compound or placebo",12
same,Tolerability of single doses,[6]; single oral doses 0.5 mg to 10 mg,safe and well tolerated
same,Inhibitory effect on mitochondrial function (DILI risk),HepaRG cell,lower DILI risk than fasiglifam
same,AUC(0-inf),[7]; [13],811 ng·h/mL
same,AUC(0-t),[7]; [13],680 ng·h/mL
same,Cmax,[7]; [13],28.4 ng/mL
same,AUC(0-inf),"[7]; 1 mg, single oral dose 1 mg",1660 ng·h/mL
same,AUC(0-t),"[7]; 1 mg, single oral dose 1 mg",1370 ng·h/mL
same,Cmax,"[7]; 1 mg, single oral dose 1 mg",55.8 ng/mL
same,AUC(0-inf),"[7]; 2 mg, single oral dose 2 mg",2980 ng·h/mL
same,AUC(0-t),"[7]; 2 mg, single oral dose 2 mg",2480 ng·h/mL
same,Cmax,"[7]; 2 mg, single oral dose 2 mg",109 ng/mL
same,AUC(0-inf),[7]; [14],7740 ng·h/mL
same,AUC(0-t),[7]; [14],6520 ng·h/mL
same,Cmax,[7]; [14],243 ng/mL
same,AUC(0-inf),[7]; [15],8270 ng·h/mL
same,AUC(0-t),[7]; [15],6930 ng·h/mL
same,Cmax,[7]; [15],250 ng/mL
same,AUC(0-inf),"[7]; 10 mg, single oral dose 10 mg",18600 ng·h/mL
same,AUC(0-t),"[7]; 10 mg, single oral dose 10 mg",14800 ng·h/mL
same,Cmax,"[7]; 10 mg, single oral dose 10 mg",545 ng/mL
same,Fed/fasted % ratio for AUClast,[7]; single dose 5 mg,106.28%
same,Fed/fasted % ratio for Cmax,[7]; single dose 5 mg,103.19%
same,IC50,[8]; [16],14.3 µM
same,IC50,[8]; read-out: BSEP (bile salt export pump) IC50,14.3 µM
Cc1cc(OCCCS(C)(=O)=O)cc(C)c1-c1cccc(COc2ccc3c(c2)OC[C@H]3CC(=O)O)c1 [fasiglifam],Activity of NRF2,NRF2,significantly increased
same,IC50,MRP2,24.8 µM
same,Activity of PPAR,PPAR,significantly increased
same,CC50,[3],88.4 µM
same,IC50,MRP3; read-out: MRP3 in vitro inhibition IC50,14.2 µM
same,Accumulation of glycocholic acid (GCA),[4]; at 4 μM,significant accumulation
same,Cmax,[9]; listed as Fasiglifam,10 µM
same,Cmax,[9],10.1 µM
same,"Cpss, max",[9]; dose 25 mg,4.38 µM
same,"Cpss, max",[9]; dose 50 mg,10.10 µM
same,IC50,MRP4,11.1 µM
same,Activity of AP-1,AP-1,significantly increased
same,CVB Burden,human hepatocytes [10]; daily dose 50 mg,2 mg/day
same,"Covalent binding (CVB), compound",human hepatocytes [10]; [12],69.1 pmol/mg protein
same,"Covalent binding (CVB), +Aminobenzotriazole (CYP inhibitor)",human hepatocytes [10]; human hepatocytes,73.7 pmol/mg protein
same,"Covalent binding (CVB), +Borneol (UGT inhibitor)",human hepatocytes [10]; human hepatocytes,44.4 pmol/mg protein
same,IC50,[8]; [16],19.6 µM
CN(C)C(=N)N=C(N)N [metformin],Average improvement in the HbA1c value,[11],1.0-1.5%
